How the values were obtained:
Assay in all cases: relative viability (nuclei count vs DMSO), 5 days (fraction); higher = more cells survive
IPA-3 + Vorinostat = compound: C1=CC=C2C(=C1)C=CC(=C2SSC3=C(C=CC4=CC=CC=C43)O)O [IPA-3] + O=C(CCCCCCC(=O)Nc1ccccc1)NO [Vorinostat] (partner 1 µM)
Method in brief: (§1)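 For relative viability, nuclei counts in treated wells were divided by those in vehicle wells. Lung cancer cell lines had been pin-tool dosed in 1536-well plates the day after seeding and cultured for 5 days, then fixed and stained in one step (final 0.05% Triton X-100, 1% formaldehyde, 1 ug/ml Hoechst) and imaged at 4×. Doses were one drug alone or a fixed anchor-drug dose plus five library-drug doses (not always all listed) in √10 steps, and values are duplicate-plate medians.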

Doramapimod + Bortezomib = compound: Cc1ccc(-n2nc(C(C)(C)C)cc2NC(=O)Nc2ccc(OCCN3CCOCC3)c3ccccc23)cc1 [Doramapimod] + CC(C)C[C@H](NC(=O)[C@H](Cc1ccccc1)NC(=O)c1cnccn1)B(O)O [Bortezomib] (partner 0.002 µM)
Method in brief: as §1

IPA-3 + Palbociclib = compound: C1=CC=C2C(=C1)C=CC(=C2SSC3=C(C=CC4=CC=CC=C43)O)O [IPA-3] + CC(=O)c1c(C)c2cnc(Nc3ccc(N4CCNCC4)cn3)nc2n(C2CCCC2)c1=O [Palbociclib] (partner 0.5 µM)
Method in brief: as §1

IPA-3 + Luminespib = compound: C1=CC=C2C(=C1)C=CC(=C2SSC3=C(C=CC4=CC=CC=C43)O)O [IPA-3] + CCNC(=O)c1noc(-c2cc(C(C)C)c(O)cc2O)c1-c1ccc(CN2CCOCC2)cc1 [Luminespib] (partner 0.01 µM)
Method in brief: as §1

How did the relative viability (IPA-3 + Vorinostat; first compound 0.2 µM) turn out when UMC-11 was run?
Its relative viability is 0.395.

And the relative viability (IPA-3 + Vorinostat; first compound 0.6325 µM)?
The relative viability was 0.425.

What about the relative viability (IPA-3 + Vorinostat; first compound 2 µM) of the same cell line?
Its relative viability is 0.389.

What about the relative viability (IPA-3 + Vorinostat; first compound 6.325 µM) of the same cell line?
Its relative viability is 0.394.

What about the relative viability (IPA-3 + Vorinostat; first compound 20 µM) of the same cell line?
Its relative viability is 0.409.

What about the relative viability (Doramapimod + Bortezomib; first compound 0.02 µM) of the same cell line?
The relative viability was 0.772.

And the relative viability (Doramapimod + Bortezomib; first compound 0.06325 µM)?
The relative viability was 0.784.

And the relative viability (Doramapimod + Bortezomib; first compound 0.2 µM)?
Its relative viability is 0.564.

What about the relative viability (Doramapimod + Bortezomib; first compound 0.6325 µM) of the same cell line?
The relative viability was 0.675.

And the relative viability (Doramapimod + Bortezomib; first compound 2 µM)?
The relative viability was 0.568.

And the relative viability (IPA-3 + Palbociclib; first compound 0.2 µM)?
Its relative viability is 0.323.

And the relative viability (IPA-3 + Palbociclib; first compound 0.6325 µM)?
Its relative viability is 0.333.

And the relative viability (IPA-3 + Palbociclib; first compound 2 µM)?
The relative viability was 0.312.

And the relative viability (IPA-3 + Palbociclib; first compound 6.325 µM)?
Its relative viability is 0.328.

What about the relative viability (IPA-3 + Palbociclib; first compound 20 µM) of the same cell line?
The relative viability was 0.337.

And the relative viability (IPA-3 + Luminespib; first compound 0.2 µM)?
Its relative viability is 1.12.

What about the relative viability (IPA-3 + Luminespib; first compound 0.6325 µM) of the same cell line?
Its relative viability is 0.94.

And the relative viability (IPA-3 + Luminespib; first compound 2 µM)?
The relative viability was 1.05.

And the relative viability (IPA-3 + Luminespib; first compound 6.325 µM)?
Its relative viability is 1.06.

What about the relative viability (IPA-3 + Luminespib; first compound 20 µM) of the same cell line?
The relative viability was 1.53.

Reference: the supplement of paper PMC10307832
